The test system of data set [1] is nasal cavity, the affected site. Description: Effect on nose of cyclic peptides in which amino acid was substituted. The following applies: for irritation upon nasal application: nasal application once/day.
Procedure: The obtained cyclic peptide was combined with purified water at 1, 5, 30, 100, 500 μg/ml and applied to the affected site. Formulations A to E in the tables refers to the cyclic peptide of 1, 5, 30, 100, 500 μg/ml, respectively.
Data set [2] has as its system affected site of psoriasis. Put plainly: Effect of C-ring / CNP gel formulation on psoriasis. The data set is classed as in vivo, human. Conditions: psoriasis patient P6; after 3 days from the application. An excerpt: Followings are the summary of the therapeutic effects for psoriasis cases. As described above, the C-ring gel formulation was applied to the affected site of psoriasis, and changes in symptoms before and after the application were observed. When possible, as a comparative example, the CNP gel formulation described above was applied onto another affected site of the same subject where the C-ring gel formulation had not been applied, and changes in symptoms before and after the application were observed. Examination result is given in tables below with subjects' age, sex and symptoms, and prescription for the subjects.

For data set [3], the system named is normal subjects who have symptoms of lip roughness. Description: Lip mucosal condition after application of C-ring gel formulation. It is filed as in vivo, human. The following applies: lip roughness (cases I1-I5); 1 μM, 1 application. An excerpt:
To normal subjects who have symptoms of lip roughness, the C-ring gel formulation was applied and changes in lip mucosal conditions were observed and summarized in the following table. Changes in the mucosal condition were judged based on based on cenesthesic evaluation by the subject and objective observation by the inventor as a physician.

Entries after “also recorded” stand apart in the source; their conditions may differ. Positions of bridges follow the written chain, without caps; N, C: chain ends. Residues, ends and D or L forms follow the SMILES beside them. No end group written: not given here.

Turning to `CC[C@H](C)[C@@H]1NC(=O)CNC(=O)[C@H](CO)NC(=O)[C@H](CCSC)NC(=O)[C@H](CO)NC(=O)CNC(=O)[C@H]([C@@H](C)CC)NC(=O)[C@H](CCCNC(=N)N)NC(=O)[C@H](CC(=O)O)NC(=O)[C@H](CC(C)C)NC(=O)[C@H](CCCCN)NC(=O)[C@H](CC(C)C)NC(=O)CNC(=O)[C@H](Cc2ccccc2)NC(=O)[C@@H](N)CSSC[C@@H](C(=O)O)NC(=O)CNC1=O` [SEQ ID NO: 19] (H-CFGLKLDRIGSMSGIGC-OH; disulfide 1-17; N-terminus and C-terminus assumed), the “irritation upon nasal application” value in data set [1] (Formulation C = 30 μg/ml) was “There was no irritation upon nasal application”.

On to `CC[C@H](C)[C@@H]1NC(=O)[C@H](CCCNC(=N)N)NC(=O)[C@H](CC(=O)O)NC(=O)[C@H](CC(C)C)NC(=O)[C@H](CCCCN)NC(=O)[C@H](CC(C)C)NC(=O)CNC(=O)[C@H](Cc2ccccc2)NC(=O)[C@@H](N)CSSC[C@@H](C(=O)O)NC(=O)CNC(=O)[C@H](CCSC)NC(=O)CNC(=O)[C@H](CO)NC(=O)[C@H](CCSC)NC(=O)[C@H](CO)NC(=O)CNC1=O` [SEQ ID NO: 20] (H-CFGLKLDRIGSMSGMGC-OH; disulfide 1-17; N-terminus and C-terminus assumed), for which the “irritation upon nasal application” value in data set [1] (Formulation C = 30 μg/ml) is recorded as “There was no irritation upon nasal application”.

Regarding `CC[C@H](C)[C@@H]1NC(=O)[C@H](CCCNC(=N)N)NC(=O)[C@H](CC(=O)O)NC(=O)[C@H](CC(C)C)NC(=O)[C@H](CCCCN)NC(=O)[C@H](CC(C)C)NC(=O)CNC(=O)[C@H](Cc2ccccc2)NC(=O)[C@@H](N)CSSC[C@@H](C(=O)O)NC(=O)CNC(=O)[C@H](Cc2ccccc2)NC(=O)CNC(=O)[C@H](CO)NC(=O)[C@H](CCSC)NC(=O)[C@H](CO)NC(=O)CNC1=O` [SEQ ID NO: 21] (H-CFGLKLDRIGSMSGFGC-OH; disulfide 1-17; N-terminus and C-terminus assumed), in data set [1] (Formulation C = 30 μg/ml), the “irritation upon nasal application” value is “upon blowing. There was no irritation upon nasal”.

With `CC[C@H](C)[C@@H]1NC(=O)[C@H](CCCNC(=N)N)NC(=O)[C@H](CC(=O)O)NC(=O)[C@H](CC(C)C)NC(=O)[C@H](CCCCN)NC(=O)[C@H](CC(C)C)NC(=O)[C@H](C)NC(=O)[C@H](Cc2ccccc2)NC(=O)[C@@H](N)CSSC[C@@H](C(=O)O)NC(=O)CNC(=O)[C@H](CC(C)C)NC(=O)CNC(=O)[C@H](CO)NC(=O)[C@H](CCSC)NC(=O)[C@H]([C@@H](C)O)NC(=O)CNC1=O` [SEQ ID NO: 33] (H-CFALKLDRIGTMSGLGC-OH; disulfide 1-17; N-terminus and C-terminus assumed), the “irritation upon nasal application” value in data set [1] (Formulation C = 30 μg/ml) is reported as “There was no irritation upon nasal application”.

As to `CC[C@H](C)[C@@H]1NC(=O)[C@H](CCCNC(=N)N)NC(=O)[C@H](CC(=O)O)NC(=O)[C@H](CC(C)C)NC(=O)[C@H](CCCCN)NC(=O)[C@H](CC(C)C)NC(=O)[C@H](C)NC(=O)[C@H](Cc2ccccc2)NC(=O)[C@@H](N)CSSC[C@@H](C(=O)O)NC(=O)CNC(=O)[C@H](CC(C)C)NC(=O)CNC(=O)[C@H]([C@@H](C)O)NC(=O)[C@H](CCSC)NC(=O)[C@H](CO)NC(=O)CNC1=O` [SEQ ID NO: 34] (H-CFALKLDRIGSMTGLGC-OH; disulfide 1-17; N-terminus and C-terminus assumed), in data set [1] (Formulation B = 5 μg/ml), the “irritation upon nasal application” value is reported as “There was no irritation upon nasal application”.

For `CC[C@H](C)[C@@H]1NC(=O)[C@H](CCCNC(=N)N)NC(=O)[C@H](CC(=O)O)NC(=O)[C@H](CC(C)C)NC(=O)[C@H](CCCCN)NC(=O)[C@H](CC(C)C)NC(=O)CNC(=O)[C@H](Cc2ccccc2)NC(=O)[C@@H](N)CSSC[C@@H](C(=O)O)NC(=O)CNC(=O)[C@H](CC(C)C)NC(=O)CNC(=O)[C@H]([C@@H](C)O)NC(=O)[C@H](CCSC)NC(=O)[C@H]([C@@H](C)O)NC(=O)CNC1=O` [SEQ ID NO: 39] (H-CFGLKLDRIGTMTGLGC-OH; disulfide 1-17; N-terminus and C-terminus assumed), the “irritation upon nasal application” value in data set [1] (Formulation C = 30 μg/ml) is given as “upon blowing. There was no irritation upon nasal”.

Consider `CC[C@H](C)[C@@H]1NC(=O)CNC(=O)[C@H](CO)NC(=O)[C@H](CCSC)NC(=O)[C@H]([C@@H](C)O)NC(=O)CNC(=O)[C@H]([C@@H](C)CC)NC(=O)[C@H](CCCNC(=N)N)NC(=O)[C@H](CC(=O)O)NC(=O)[C@H](CC(C)C)NC(=O)[C@H](CCCCN)NC(=O)[C@H](CC(C)C)NC(=O)CNC(=O)[C@H](Cc2ccccc2)NC(=O)[C@@H](N)CSSC[C@@H](C(=O)O)NC(=O)CNC1=O` [SEQ ID NO: 40] (H-CFGLKLDRIGTMSGIGC-OH; disulfide 1-17; N-terminus and C-terminus assumed), for which, in data set [1] (Formulation C = 30 μg/ml), the “irritation upon nasal application” value is “There was no irritation upon nasal application”.

On to `CC[C@H](C)[C@@H]1NC(=O)CNC(=O)[C@H]([C@@H](C)O)NC(=O)[C@H](CCSC)NC(=O)[C@H](CO)NC(=O)CNC(=O)[C@H]([C@@H](C)CC)NC(=O)[C@H](CCCNC(=N)N)NC(=O)[C@H](CC(=O)O)NC(=O)[C@H](CC(C)C)NC(=O)[C@H](CCCCN)NC(=O)[C@H](CC(C)C)NC(=O)CNC(=O)[C@H](Cc2ccccc2)NC(=O)[C@@H](N)CSSC[C@@H](C(=O)O)NC(=O)CNC1=O` [SEQ ID NO: 41] (H-CFGLKLDRIGSMTGIGC-OH; disulfide 1-17; N-terminus and C-terminus assumed), for which the “irritation upon nasal application” value in data set [1] (Formulation C = 30 μg/ml) is on record as “There was no irritation upon nasal application”.

For `CC[C@H](C)[C@@H]1NC(=O)CNC(=O)[C@H](CO)NC(=O)[C@H](CCSC)NC(=O)[C@H](CO)NC(=O)CNC(=O)[C@H]([C@@H](C)CC)NC(=O)[C@H](CCCNC(=N)N)NC(=O)[C@H](CC(=O)O)NC(=O)[C@H](CCSC)NC(=O)[C@H](CCCCN)NC(=O)[C@H](CC(C)C)NC(=O)[C@H](C)NC(=O)[C@H](Cc2ccccc2)NC(=O)[C@@H](N)CSSC[C@@H](C(=O)O)NC(=O)CNC1=O` [SEQ ID NO: 50] (H-CFALKMDRIGSMSGIGC-OH; disulfide 1-17; N-terminus and C-terminus assumed), the “irritation upon nasal application” value in data set [1] (Formulation C = 30 μg/ml) was “stopped. There was no irritation upon nasal application”.

For `CC[C@H](C)[C@@H]1NC(=O)CNC(=O)[C@H](CO)NC(=O)[C@H](CCSC)NC(=O)[C@H]([C@@H](C)O)NC(=O)CNC(=O)[C@H]([C@@H](C)CC)NC(=O)[C@H](CCCNC(=N)N)NC(=O)[C@H](CC(=O)O)NC(=O)[C@H](CCSC)NC(=O)[C@H](CCCCN)NC(=O)[C@H](CC(C)C)NC(=O)CNC(=O)[C@H](Cc2ccccc2)NC(=O)[C@@H](N)CSSC[C@@H](C(=O)O)NC(=O)CNC1=O` [SEQ ID NO: 52] (H-CFGLKMDRIGTMSGIGC-OH; disulfide 1-17; N-terminus and C-terminus assumed), in data set [1] (Formulation C = 30 μg/ml), the “irritation upon nasal application” value is listed as “clear. There was no irritation upon nasal application”.

For `CC[C@H](C)[C@@H]1NC(=O)CNC(=O)[C@H]([C@@H](C)O)NC(=O)[C@H](CCSC)NC(=O)[C@H](CO)NC(=O)CNC(=O)[C@H]([C@@H](C)CC)NC(=O)[C@H](CCCNC(=N)N)NC(=O)[C@H](CC(=O)O)NC(=O)[C@H](CCSC)NC(=O)[C@H](CCCCN)NC(=O)[C@H](CC(C)C)NC(=O)CNC(=O)[C@H](Cc2ccccc2)NC(=O)[C@@H](N)CSSC[C@@H](C(=O)O)NC(=O)CNC1=O` [SEQ ID NO: 53] (H-CFGLKMDRIGSMTGIGC-OH; disulfide 1-17; N-terminus and C-terminus assumed), the “irritation upon nasal application” value in data set [1] (Formulation C = 30 μg/ml) is on record as “upon blowing. There was no irritation upon nasal”.

`CC[C@H](C)[C@@H]1NC(=O)CNC(=O)[C@H](CO)NC(=O)[C@H](CCSC)NC(=O)[C@H]([C@@H](C)O)NC(=O)CNC(=O)[C@H]([C@@H](C)CC)NC(=O)[C@H](CCCNC(=N)N)NC(=O)[C@H](CC(=O)O)NC(=O)[C@H](CCSC)NC(=O)[C@H](CCCCN)NC(=O)[C@H](CC(C)C)NC(=O)[C@H](C)NC(=O)[C@H](Cc2ccccc2)NC(=O)[C@@H](N)CSSC[C@@H](C(=O)O)NC(=O)CNC1=O` [SEQ ID NO: 58] (H-CFALKMDRIGTMSGIGC-OH; disulfide 1-17; N-terminus and C-terminus assumed): the “irritation upon nasal application” value in data set [1] (Formulation B = 5 μg/ml) is “There was no irritation upon nasal application”.

Consider `CC[C@H](C)[C@@H]1NC(=O)CNC(=O)[C@H]([C@@H](C)O)NC(=O)[C@H](CCSC)NC(=O)[C@H](CO)NC(=O)CNC(=O)[C@H]([C@@H](C)CC)NC(=O)[C@H](CCCNC(=N)N)NC(=O)[C@H](CC(=O)O)NC(=O)[C@H](CCSC)NC(=O)[C@H](CCCCN)NC(=O)[C@H](CC(C)C)NC(=O)[C@H](C)NC(=O)[C@H](Cc2ccccc2)NC(=O)[C@@H](N)CSSC[C@@H](C(=O)O)NC(=O)CNC1=O` [SEQ ID NO: 59] (H-CFALKMDRIGSMTGIGC-OH; disulfide 1-17; N-terminus and C-terminus assumed), for which, in data set [1] (Formulation D = 100 μg/ml), the “irritation upon nasal application” value is given as “upon blowing. There was no irritation upon nasal”.

On to “Gly-Leu-Ser-Lys-Gly-Cys-Phe-Gly-Leu-Lys-Leu-Asp-Arg-Ile-Gly-Ser-Met-Ser-Gly-Leu-Gly-Cys (GLSKGCFGLKLDRIGSMSGLGC; disulfide 6-22; listed as Homo sapiens) [CNP, human wild-type C-type natriuretic peptide (American Peptide Company)]”, for which the “Results of two-sided application on lower thighs (FIG. 1)” value in data set [2] is “scales became inconspicuous but still remains, and erythema and infiltration were improved only a little”. The “Post-application Symptoms” value in data set [3] is “remained on corner of mouth”.

Take “SEEQ ID NO: 3 (CFGLKLDRIGSMSGLGC; disulfide 1-17)”: the “Post-treatment diagnostic skin impression” value in data set [1] (nasal application for comparison of right and left in one subject, Formulation A = 1 μg/ml, once/day) is listed as “After 3 min, nasal discharge did not stop; also recorded: After 2 min, nose was not clear”.

(Values after patent publication US20240376153A1, “CNP CYCLIC PEPTIDE, AND MEDICINE, EXTERNAL PREPARATION AND COSMETIC EACH CONTAINING SAID CYCLIC PEPTIDE” (Igisu Co., Ltd., priority 2015, published 2024).)
